Results as given in ChEMBL document CHEMBL1201862, “PubChem BioAssay data set” (2004).
Calls of active or inactive are those of the source.

Columns and labels:
[1] = target: Sphingosine 1-phosphate receptor 1 (Homo sapiens, UniProt P21453); experiment: Fluorescence-based counterscreen assay for S1P4 agonists: Cell-based dose response high throughput screening assay to identify agonists of the Sphingosine 1-Phosphate Receptor 1 (S1P1). [Related pubchem assays (depositor defined):AID1509, AID1523, AID1801, AID463107, AID463118, AID463119, AID463122, AID463123, AID463129, AID463225, AID504400, AID504460]; format: functional
Chain of Sphingosine 1-phosphate receptor 1 (P21453 whole entry): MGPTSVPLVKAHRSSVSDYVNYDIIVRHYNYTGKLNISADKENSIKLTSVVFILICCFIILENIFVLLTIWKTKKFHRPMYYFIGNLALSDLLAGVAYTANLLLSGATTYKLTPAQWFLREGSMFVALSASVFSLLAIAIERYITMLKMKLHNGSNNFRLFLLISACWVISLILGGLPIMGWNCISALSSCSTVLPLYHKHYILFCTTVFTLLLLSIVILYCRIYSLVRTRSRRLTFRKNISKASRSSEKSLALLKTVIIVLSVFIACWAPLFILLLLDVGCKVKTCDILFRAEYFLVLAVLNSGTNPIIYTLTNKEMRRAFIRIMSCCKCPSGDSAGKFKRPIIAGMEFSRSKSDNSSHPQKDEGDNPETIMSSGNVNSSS

[2] = target: Sphingosine 1-phosphate receptor 4 (Homo sapiens, UniProt O95977); experiment: Fluorescence dose response cell-based high throughput screening assay for agonists of the Sphingosine 1-Phosphate Receptor 4 (S1P4). [Related pubchem assays: 1509 (Primary screen.), 1523 (Confirmation screen in triplicates.)]; format: functional
Chain of Sphingosine 1-phosphate receptor 4 (O95977 whole entry, the tested form may be a part): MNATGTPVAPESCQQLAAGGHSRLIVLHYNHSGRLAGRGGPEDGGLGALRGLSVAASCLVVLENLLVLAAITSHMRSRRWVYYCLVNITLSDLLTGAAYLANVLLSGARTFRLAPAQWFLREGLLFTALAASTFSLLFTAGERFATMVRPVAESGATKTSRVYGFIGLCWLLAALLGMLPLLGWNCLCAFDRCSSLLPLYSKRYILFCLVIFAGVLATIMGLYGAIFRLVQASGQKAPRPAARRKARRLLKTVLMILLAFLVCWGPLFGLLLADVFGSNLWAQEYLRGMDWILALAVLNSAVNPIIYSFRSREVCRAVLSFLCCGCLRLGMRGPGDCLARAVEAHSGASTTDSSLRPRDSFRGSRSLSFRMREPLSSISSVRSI

[3] = target: Nucleotide-binding oligomerization domain-containing protein 1 (Homo sapiens, UniProt Q9Y239); experiment: SAR analysis of compounds that inhibit NOD1 - Set 3. [Related pubchem assays (depositor defined):AID1566, AID1575, AID1578, AID1849, AID1852, AID2333, AID2335, AID2466]; format: functional
Chain of Nucleotide-binding oligomerization domain-containing protein 1 (Q9Y239 whole entry, the tested form may be a part): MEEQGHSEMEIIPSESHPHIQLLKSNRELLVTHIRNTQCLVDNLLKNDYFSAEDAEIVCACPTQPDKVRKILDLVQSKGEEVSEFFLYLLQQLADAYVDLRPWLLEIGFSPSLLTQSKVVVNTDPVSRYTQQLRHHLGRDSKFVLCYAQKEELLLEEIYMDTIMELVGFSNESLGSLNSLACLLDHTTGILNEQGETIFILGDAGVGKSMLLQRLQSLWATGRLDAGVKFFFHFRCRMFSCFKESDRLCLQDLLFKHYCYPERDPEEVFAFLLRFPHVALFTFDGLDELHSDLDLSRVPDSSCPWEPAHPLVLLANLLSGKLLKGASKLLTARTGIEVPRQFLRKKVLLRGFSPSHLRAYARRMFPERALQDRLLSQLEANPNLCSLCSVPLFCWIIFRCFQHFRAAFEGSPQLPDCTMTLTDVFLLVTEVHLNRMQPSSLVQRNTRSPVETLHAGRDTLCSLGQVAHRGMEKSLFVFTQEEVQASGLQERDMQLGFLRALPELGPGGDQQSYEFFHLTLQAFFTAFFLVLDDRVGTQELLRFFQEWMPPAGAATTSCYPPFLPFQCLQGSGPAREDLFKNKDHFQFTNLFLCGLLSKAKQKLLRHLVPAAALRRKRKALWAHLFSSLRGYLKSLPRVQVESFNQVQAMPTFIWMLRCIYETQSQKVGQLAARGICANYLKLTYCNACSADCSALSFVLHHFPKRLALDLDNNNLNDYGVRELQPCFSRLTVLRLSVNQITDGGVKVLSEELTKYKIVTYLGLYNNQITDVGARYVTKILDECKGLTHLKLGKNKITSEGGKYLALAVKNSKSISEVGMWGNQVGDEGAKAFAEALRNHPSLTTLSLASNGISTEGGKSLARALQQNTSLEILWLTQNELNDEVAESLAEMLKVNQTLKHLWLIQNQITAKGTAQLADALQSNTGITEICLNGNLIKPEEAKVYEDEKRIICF

Tumor necrosis factor = Tumor necrosis factor (Homo sapiens, UniProt P01375); experiment: TNFa-triggered NF-kB activation inhibitors, SAR follow-up, cell-based, set 3 (AID 2801); format: functional
HEK293 = experiment: SAR analysis of compounds that are cytotoxic to HEK293 - Set 3. [Related pubchem assays (depositor defined):AID1575, AID1578, AID1848, AID1849, AID2001, AID2333, AID2334, AID2335, AID2337, AID2469]; format: functional, cell-based; conditions: Homo sapiens
[4] = target: Nucleotide-binding oligomerization domain-containing protein 2 (Homo sapiens, UniProt Q9HC29); experiment: NOD2 signaling inhibitors, analog potency, SAR follow-up, cell-based, set 3 (AID 2799); format: functional
[5] = target: T1, Kappa-type opioid receptor (Homo sapiens, UniProt P41145); experiment: KOR agonist analogs, arrestin-GFP redistribution, SAR follow-up, imaging, image-based, set 3 (AID 488833); format: functional
T1 sequence (P41145 whole entry): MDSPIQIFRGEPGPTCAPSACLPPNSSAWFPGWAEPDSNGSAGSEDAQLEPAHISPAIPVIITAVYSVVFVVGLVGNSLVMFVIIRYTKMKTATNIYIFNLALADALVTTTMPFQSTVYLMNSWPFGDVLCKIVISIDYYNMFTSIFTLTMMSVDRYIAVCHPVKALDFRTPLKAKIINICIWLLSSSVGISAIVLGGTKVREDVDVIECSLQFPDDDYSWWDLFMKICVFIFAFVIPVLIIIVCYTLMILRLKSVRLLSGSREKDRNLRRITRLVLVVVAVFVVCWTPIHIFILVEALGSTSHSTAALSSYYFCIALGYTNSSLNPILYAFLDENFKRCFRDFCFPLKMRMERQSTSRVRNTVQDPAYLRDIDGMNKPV

Mu-type opioid receptor = Mu-type opioid receptor (Homo sapiens, UniProt P35372); experiment: SAR Analysis of Agonists of the MOR Receptor using an Image-Based Assay - Set 3. [Related pubchem assays (depositor defined):AID1777, AID1785, AID1786, AID1966, AID2133, AID2136, AID2284, AID2285, AID2352]; format: functional
Chain of Mu-type opioid receptor (P35372 whole entry): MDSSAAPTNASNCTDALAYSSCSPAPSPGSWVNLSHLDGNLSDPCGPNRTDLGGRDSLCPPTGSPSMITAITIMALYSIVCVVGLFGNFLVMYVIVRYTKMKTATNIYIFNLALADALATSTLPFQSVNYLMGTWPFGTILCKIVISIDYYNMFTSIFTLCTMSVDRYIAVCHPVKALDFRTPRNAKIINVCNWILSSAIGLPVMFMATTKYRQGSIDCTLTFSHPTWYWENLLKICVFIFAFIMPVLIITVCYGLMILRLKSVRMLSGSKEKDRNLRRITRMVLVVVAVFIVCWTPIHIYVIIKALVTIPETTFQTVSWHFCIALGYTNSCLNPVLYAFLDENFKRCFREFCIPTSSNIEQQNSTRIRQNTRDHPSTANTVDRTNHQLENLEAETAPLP

[6] = target: Delta-type opioid receptor (Homo sapiens, UniProt P41143); experiment: SAR Analysis of Agonists of the DOR Receptor using an Image-Based Assay - Set 3. [Related pubchem assays (depositor defined):AID1777, AID1786]; format: functional
Chain of Delta-type opioid receptor (P41143 whole entry): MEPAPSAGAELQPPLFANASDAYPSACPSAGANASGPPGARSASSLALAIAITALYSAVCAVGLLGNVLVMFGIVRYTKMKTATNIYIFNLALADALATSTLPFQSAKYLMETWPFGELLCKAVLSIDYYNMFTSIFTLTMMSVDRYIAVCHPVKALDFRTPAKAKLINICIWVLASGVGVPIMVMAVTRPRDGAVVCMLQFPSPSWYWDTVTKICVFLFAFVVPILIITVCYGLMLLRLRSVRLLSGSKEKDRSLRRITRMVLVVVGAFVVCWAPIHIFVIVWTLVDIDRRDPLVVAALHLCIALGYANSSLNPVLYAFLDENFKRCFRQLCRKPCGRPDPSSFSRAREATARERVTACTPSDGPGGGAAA

[7] = target: T1, Kappa-type opioid receptor; experiment: SAR analysis of small molecule agonists of the kappa opioid receptor via a luminescent beta-arrestin assay - Set 3. [Related pubchem assays (depositor defined):AID1777, AID1785, AID1786, AID1966, AID2133, AID2136, AID2284, AID2500]; format: functional
[8] = decrease of PhoP-driven GFP reporter signal, S. Typhimurium, dose response, PhoP regulon inhibitor project, purified and synthesized compounds, set 2 (AID 2831); format: functional
[9] = insulin promoter down-regulators in MIN6 cells, imaging, high-content screening, mouse beta cells (AID 1628); format: functional
[10] = cytotoxicity in MIN6 insulinoma cells, dose response, cytotoxicity control, cell-based, mouse insulinoma (AID 2122); format: functional;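 also: confirmatory high-throughput counterscreen run to flag cytotoxic compounds; mouse MIN-6 beta cells carrying an insulin promoter eGFP reporter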
Ion channel NompC = Ion channel NompC (Danio rerio, UniProt Q7T1G6); experiment: Dose response cell-based high-throughput screening assay for agonists of the transient receptor potential channel N1 (TRPN1). [Related pubchem assays (depositor defined):AID1424, AID1448]; format: functional
Chain of Ion channel NompC (Q7T1G6 whole entry): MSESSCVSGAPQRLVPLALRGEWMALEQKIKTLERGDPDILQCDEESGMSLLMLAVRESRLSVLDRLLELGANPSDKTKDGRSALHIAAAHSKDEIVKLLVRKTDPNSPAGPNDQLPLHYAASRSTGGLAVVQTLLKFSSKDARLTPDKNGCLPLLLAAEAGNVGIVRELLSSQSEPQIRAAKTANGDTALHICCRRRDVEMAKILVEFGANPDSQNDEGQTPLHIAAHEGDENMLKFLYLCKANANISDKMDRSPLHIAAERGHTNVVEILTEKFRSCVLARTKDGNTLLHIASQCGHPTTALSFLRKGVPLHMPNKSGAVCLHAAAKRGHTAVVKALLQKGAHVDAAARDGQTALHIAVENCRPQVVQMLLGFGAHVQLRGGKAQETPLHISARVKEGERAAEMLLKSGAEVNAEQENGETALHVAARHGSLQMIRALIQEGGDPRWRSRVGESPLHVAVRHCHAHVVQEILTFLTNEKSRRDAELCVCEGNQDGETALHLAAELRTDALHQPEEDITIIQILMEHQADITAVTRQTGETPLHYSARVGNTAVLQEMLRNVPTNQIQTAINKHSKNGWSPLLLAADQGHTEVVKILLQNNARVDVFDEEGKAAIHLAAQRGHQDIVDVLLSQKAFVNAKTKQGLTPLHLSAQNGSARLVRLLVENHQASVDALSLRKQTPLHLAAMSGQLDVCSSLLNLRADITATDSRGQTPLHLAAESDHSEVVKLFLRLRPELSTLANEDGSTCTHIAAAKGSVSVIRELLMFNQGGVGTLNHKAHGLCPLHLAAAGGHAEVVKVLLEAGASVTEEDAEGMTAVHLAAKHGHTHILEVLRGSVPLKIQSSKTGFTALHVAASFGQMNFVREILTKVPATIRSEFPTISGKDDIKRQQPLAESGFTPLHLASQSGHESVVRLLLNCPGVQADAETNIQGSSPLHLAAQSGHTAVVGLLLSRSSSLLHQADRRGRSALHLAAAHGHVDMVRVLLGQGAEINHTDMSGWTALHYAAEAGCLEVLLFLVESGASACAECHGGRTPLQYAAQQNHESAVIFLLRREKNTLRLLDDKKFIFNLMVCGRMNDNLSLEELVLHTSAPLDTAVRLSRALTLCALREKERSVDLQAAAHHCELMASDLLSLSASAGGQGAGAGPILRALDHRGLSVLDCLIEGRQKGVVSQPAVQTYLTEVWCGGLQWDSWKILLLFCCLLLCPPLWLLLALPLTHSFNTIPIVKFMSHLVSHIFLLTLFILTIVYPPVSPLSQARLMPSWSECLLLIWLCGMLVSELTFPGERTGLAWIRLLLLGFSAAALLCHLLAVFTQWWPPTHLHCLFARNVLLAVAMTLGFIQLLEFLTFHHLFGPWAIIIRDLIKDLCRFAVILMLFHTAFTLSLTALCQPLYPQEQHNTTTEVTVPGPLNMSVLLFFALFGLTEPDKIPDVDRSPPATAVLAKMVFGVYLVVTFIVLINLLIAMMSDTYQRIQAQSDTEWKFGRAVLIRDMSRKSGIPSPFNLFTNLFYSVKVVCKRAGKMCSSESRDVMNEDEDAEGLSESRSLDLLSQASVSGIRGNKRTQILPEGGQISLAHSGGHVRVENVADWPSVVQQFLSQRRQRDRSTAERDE

Mucolipin-3 = Mucolipin-3 (Homo sapiens, UniProt Q8TDD5); experiment: Fluorescence counterscreen assay for […] agonists: dose response cell-based high-throughput screening assay to identify agonists of the transient receptor potential channel ML3 (TRPML3). [Related pubchem assays: 1424, 1448 ]; format: functional
Chain of Mucolipin-3 (Q8TDD5 whole entry, the tested form may be a part): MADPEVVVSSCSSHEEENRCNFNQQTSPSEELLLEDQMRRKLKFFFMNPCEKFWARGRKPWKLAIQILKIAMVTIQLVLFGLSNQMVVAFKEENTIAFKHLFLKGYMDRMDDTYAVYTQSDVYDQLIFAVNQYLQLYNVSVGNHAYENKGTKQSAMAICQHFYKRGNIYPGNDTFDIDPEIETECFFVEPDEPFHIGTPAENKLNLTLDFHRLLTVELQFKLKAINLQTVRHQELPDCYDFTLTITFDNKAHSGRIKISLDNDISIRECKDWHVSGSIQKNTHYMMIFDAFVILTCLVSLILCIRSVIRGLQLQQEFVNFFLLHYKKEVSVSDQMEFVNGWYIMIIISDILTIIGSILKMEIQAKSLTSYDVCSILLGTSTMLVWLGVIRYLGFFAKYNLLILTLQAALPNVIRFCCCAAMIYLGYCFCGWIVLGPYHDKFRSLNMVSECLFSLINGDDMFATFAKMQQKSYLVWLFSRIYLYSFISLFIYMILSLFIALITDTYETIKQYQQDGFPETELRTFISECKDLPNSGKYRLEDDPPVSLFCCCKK

[11] = target: T2, Carboxy-terminal domain RNA polymerase II polypeptide A small phosphatase 1 (Homo sapiens, UniProt Q9GZU7); experiment: inhibitors of CTDSP1, concentration-response testing, biochemical assay, absorbance-based, actives from ultra-high-throughput screening (AID 540297); format: functional
T2 sequence (Q9GZU7 whole entry): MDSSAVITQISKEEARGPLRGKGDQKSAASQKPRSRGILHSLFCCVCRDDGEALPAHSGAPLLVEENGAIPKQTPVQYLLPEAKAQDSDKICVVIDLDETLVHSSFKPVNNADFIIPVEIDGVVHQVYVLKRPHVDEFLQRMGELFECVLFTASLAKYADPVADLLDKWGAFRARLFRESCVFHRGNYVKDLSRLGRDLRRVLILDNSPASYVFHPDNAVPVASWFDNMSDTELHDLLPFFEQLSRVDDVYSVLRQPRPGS

In the case of CCOC(=O)c1c(-n2c(C)cc(C=O)c2C)sc2c1CCCC2, the EC50 [1] is reported as > 49.8 µM (inactive) and the EC50 [2] is reported as > 16.6 µM (not active).
For N#Cc1ccccc1S(=O)(=O)n1c(N)nc2ccccc21, the IC50 [3] was > 20 µM (inactive), the IC50 (Tumor necrosis factor) was > 20 µM (inactive) and the IC50 (HEK293) was > 20 µM (inactive). The IC50 [4] was > 20 µM (inactive).
For CC(C)c1ccc(CSc2nnc(-c3ccccn3)n2Cc2cccs2)cc1, the EC50 [5] was 2.17 µM (active), the EC50 (Mu-type opioid receptor) was > 32 µM (inactive) and the EC50 [6] was > 32 µM (inactive). The EC50 [7] was 3.66 µM (active).
For COc1ccc(CNC(=S)Nc2ccncc2)cc1, the IC50 [8] was > 150 µM (active).
In the case of CCCc1ccc(C(=O)NC(=O)c2ccccc2O)cc1, the IC50 [9] is reported as 4.87 µM (active), the IC50 [10] is reported as 3.97 µM (active) and the EC50 (Ion channel NompC) is reported as > 3.32 µM (inactive). For the same compound, the EC50 (Mucolipin-3) was 14.7 µM (not active) and the IC50 [11] was 8.68 µM (active).
